Tests used:
[1] = tested on: purified linear viral DNA; test: Circularization of purified linear viral DNA in cytoplasmic extracts of uninfected SupT1 cells; assay type: biochemical, HIV-1; conditions: 1 mM, 37° C., 45 min
Experimental: Further evidence of a role for host proteins in the formation of the 1-LTR and simple 2-LTR circular forms of viral DNA was obtained by testing the ability of uninfected cell extracts to mediate the circularization of purfied viral DNA. Linear viral DNA was prepared from cytoplasmic extracts of uninfected cells by SDS-proteinase K treatment and phenol extraction. The purfied DNA was added to cytoplasmic extracts prepared form uninfected SupT1 cells, in the presence or absence of added ATP.
Linear viral DNA was purified from cytoplasmic extracts of cells 4 hours post-infection as described above. In FIG. 22, a purified linear viral DNA was added to cytoplasmic extracts from uninfected SupT1 cells and incubated at 37° C. for 45 minutes. The uninfected SupT1 cells used for the preparation of extracts were either untreated (lanes 3-11) or cultured in the presence of 10 ng/ml phorbol 12-myristate 13-acetate for six hours prior to extraction (lane 2). […] Lanes 2-11: reaction products following incubation of purified linear viral DNA in uninfected extracts containing 1 mM ATP (lanes 2 and 3), nothing added (lane 4), 1 mM dATP (lane 5), 1 mM UTP (lane 6), 1 mM CTP (lane 7), 1 mM GTP (lane 8), 1 mM ATPγS (lane 9), or 1 mM ADP (lane 10). Lane 11: uninfected SupT1 cell extract was treated with proteinase K for 10 minutes at 37° C., then linear viral DNA was added and incubation continued for 45 minutes. In FIG. 23, lanes 1, 2, 4 and 5: purified linear viral DNA was incubated with T4 DNA ligase (lane 1), T4 polynucleotide kinase and T4 DNA ligase (lane 2), Klenow fragment of E. coli DNA polymerase I and T4 DNA ligase […], or Klenow fragment, T4 polynucleotide kinase, and T4 DNA ligase (lane 4). Lanes 3 and 6: in vitro circularization reaction products generated in cell extracts, included as size standards. Lane 3: cytoplasmic extracts from infected cells were incubated with […] for 45 minutes; lane 6: purified linear viral DNA was incubated with cytoplasmic extract from uninfected SupT1 cells in the presence of 1 mM ATP for 45 minutes. The possibility that a host DNA ligase was responsible for the formation of the simple 2-LTR circles was examined by testing the ability of phage T4 ligase to catalyze the circularization of linear viral DNA. […] Restriction endonuclease analysis of the reaction products formed in the presence of both Klenow fragment and T4 DNA ligase confirmed the formation of new 2-LTR junctions (not shown). […] This observation is consistent with previous reports that linear viral DNA prepared from cells infected with the murine leukemia virus [Fujiwara and Mizuuchi, Cell, 54:497-504 (1988) and HIV-1 [Pauza, Virology, 179:886-887 (1990)] consists of a mixture of molecules that are either blunt-ended or recessed by two nucleotides at each 3'-terminus. The removal of the two terminal nucleotides is mediated by the viral integrase as a necessary step in the process of integration [Roth et al., Cell 58: 47-54 (1989)]. […] This would explain the requirement of DNA polymerase for the subsequent joining of the ends of viral DNA by DNA ligase.

preintegration complexes = test: Circularization mediated by partially purified preintegration complexes; assay type: biochemical, HIV-1; conditions: for circular DNA formed by preintegration complexes: 37° C., 45 min
Experimental: Viral preintegration complexes were partially purified from cytoplasmic extracts by Sephacryl S400 gel filtration chromatography. Cytoplasmic extracts (0.8 ml) were loaded onto a 22-ml Sephacryl S400 (Pharmacia) column, 28 cm in height, equilibrated in buffer K containing 0.5% Triton X-100 at 4° C. Fractions (0.5 ml) were collected at a flow rate of approximately 0.2 ml/min.
The linear viral DNA present in cytoplasmic extracts is a part of the nucleoprotein preintegration complex that can be separated from the bulk of cellular proteins by gel filtration chromatography [Farnet and Haseltine, J. Virol., 65: 1910-1915 (1991)]. Preintegration complexes were partially purified by Sephacryl S400 column chromatography and tested for the ability to mediate the circularization of viral DNA. Cytoplasmic extracts (1 ml, vol) were fractionated by Sephacryl S-400 gel filtration chromatography as previously described. The void volume fractions of the column, containing the peak of viral DNA, were pooled (total volume, 1.5 ml) and incubated as follows with the results shown in FIG. 20. Lane 1: column fractions were incubated at 37° C. for 45 minutes; lane 2: linear .phi.X174 DNA was added to column fractions to a final concentrations of 650 ng/ml and incubated at 37° C. for 45 minutes; lane 3: ATPγS was added to column fractions and incubated at 37° C. for 45 minutes; lane 4: same as lane 3, except that an equal volume of cytoplasmic extract from uninfected SupT1 cells was added prior to incubation; lane 5: ATP was added to column fractions to a final concentration of 1 mM and incubated at 37° C. for 45 minutes; lane 6: same as lane 5, except that an equal volume of cytoplasmic extract from uninfected SupT1 cells was added prior to incubation. […] Lane 1: products of the reaction shown in FIG. 20, lane 4, digested with SalI and PstI; lane 2: products of the reaction shown in FIG. 20, lane 5, digested with SalI and PstI; lane 3: products of the reaction shown in FIG. 20, lane 6, digested with SalI and PstI. […] The formation of all types of circular produts was dependent upon the addition of ATP, as viral DNA in column fractions remained linear during incubation at 37° C. in the absence of added ATP (FIG. 20, lane 1), regardless of the addition of uninfected SupT1 cell extracts.

| Compound | 1-LTR circles from purified linear viral DNA [1] | 2-LTR circles from purified linear viral DNA [1] | circularization of purified linear viral DNA [1] | 1-LTR circle formation by preintegration complexes (preintegration complexes; 1 mM ATP, plus cytoplasmic extract from uninfected SupT1 cells) | 2-LTR junction fragment from preintegration complexes (preintegration complexes; 1 mM ATP, plus uninfected SupT1 cell extract) | circular DNA formed by preintegration complexes (preintegration complexes; 1 mM, column fractions) | ability to substitute for ATP in formation of simple 2-LTR circles [1] | circular DNA formed by preintegration complexes (preintegration complexes; in presence and absence of uninfected cell extracts) |
| --- | --- | --- | --- | --- | --- | --- | --- | --- |
| Nc1ncnc2c1ncn2[C@@H]1O[C@H](COP(=O)(O)OP(=O)(O)OP(=O)(O)O)[C@@H](O)[C@H]1O [ATP, adenosine triphosphate] | The most abundant of the new DNA forms comigrated with the 1-LTR circular DNA molecules | a small amount of product migrating as 2-LTR circles could also be detected | New, slowly migrating DNA species were detected | restored the ability to form 1-LTR circles | a small amount of new 2-LTR junction fragment was also detected | formation of only the 2-LTR circular DNA form | – | – |
| Nc1ncnc2c1ncn2[C@@H]1O[C@H](COP(=O)(O)OP(=O)(O)OP(O)(O)=S)[C@@H](O)[C@H]1O [ATPγS] | – | – | failed to induce the circularization of purified linear viral DNA | – | – | – | None of the other nucleoside triphosphates tested, nor ATPγS, was able to substitute for ATP | exclusive formation of autointegration 2-LTR circles |

Source: patent US5759768A, “Assays for factors affecting circularization of DNA, assays for factors affecting DNA integration, factors, and uses thereof” (priority 1995, dated 1998)
